Reference: ChEMBL document CHEMBL4138123, “Design, synthesis and biological evaluation of novel pyrazolochalcones as potential modulators of PI3K/Akt/mTOR pathway and inducers of apoptosis in breast cancer cells” (Eur J Med Chem, 2017)

Key:
Assay type in all cases: functional
[1] = system: A498; experiment: Cytotoxicity against human A498 cells assessed as cell growth at 10 uM after 48 hrs by sulforhodamine B assay relative to control; details: A498, 48 h, read-out: Activity
[2] = system: UACC-257; experiment: Cytotoxicity against human UACC257 cells assessed as growth inhibition after 48 hrs by sulforhodamine B assay; details: UACC-257, 48 h
[3] = system: HL-60(TB); experiment: Cytotoxicity against human HL-60(TB) cells assessed as cell growth at 10 uM after 48 hrs by sulforhodamine B assay relative to control; details: HL-60, 48 h, read-out: Activity
[4] = system: HCT-116; experiment: Cytotoxicity against human HCT116 cells assessed as cell growth at 0.1 uM after 48 hrs by sulforhodamine B assay relative to control; details: HCT-116, 48 h, read-out: Activity
[5] = system: NCI-H522; experiment: Cytotoxicity against human NCI-H522 cells assessed as cell growth at 100 uM after 48 hrs by sulforhodamine B assay relative to control; details: NCI-H522, 48 h, read-out: Activity
[6] = system: HCC 2998; experiment: Cytotoxicity against human HCC2998 cells assessed as growth inhibition after 48 hrs by sulforhodamine B assay; details: HCC 2998, 48 h
[7] = system: A498; experiment: Cytotoxicity against human A498 cells assessed as cell growth at 100 uM after 48 hrs by sulforhodamine B assay relative to control; details: A498, 48 h, read-out: Activity
[8] = system: OVCAR-8; experiment: Cytotoxicity against human OVCAR8 cells assessed as cell growth at 100 uM after 48 hrs by sulforhodamine B assay relative to control; details: OVCAR-8, 48 h, read-out: Activity
[9] = system: MDA-MB-435; experiment: Cytotoxicity against human MDA-MB-435 cells assessed as cell growth at 100 uM after 48 hrs by sulforhodamine B assay relative to control; details: MDA-MB-435, 48 h, read-out: Activity
[10] = system: PC-3; experiment: Cytotoxicity against human PC3 cells assessed as cell growth at 0.1 uM after 48 hrs by sulforhodamine B assay relative to control; details: PC-3, 48 h, read-out: Activity
[11] = system: Hs-578T; experiment: Cytotoxicity against human Hs 578T cells assessed as cell growth at 100 uM after 48 hrs by sulforhodamine B assay relative to control; details: read-out: Activity
[12] = system: OVCAR-5; experiment: Cytotoxicity against human OVCAR5 cells assessed as cell growth at 0.01 uM after 48 hrs by sulforhodamine B assay relative to control; details: OVCAR-5, 48 h, read-out: Activity
[13] = system: SF-268; experiment: Cytotoxicity against human SF268 cells assessed as cell growth at 0.1 uM after 48 hrs by sulforhodamine B assay relative to control; details: SF-268, 48 h, read-out: Activity
[14] = system: SNB-19; experiment: Cytotoxicity against human SNB19 cells assessed as growth inhibition after 48 hrs by sulforhodamine B assay; details: SNB-19, 48 h; for CC50: read-out: LC50 (the source's name)
[15] = system: HL-60(TB); experiment: Cytotoxicity against human HL-60(TB) cells assessed as growth inhibition after 48 hrs by sulforhodamine B assay; details: HL-60, 48 h
[16] = system: OVCAR-8; experiment: Cytotoxicity against human OVCAR8 cells assessed as cell growth at 10 uM after 48 hrs by sulforhodamine B assay relative to control; details: OVCAR-8, 48 h, read-out: Activity
[17] = system: SN12C; experiment: Cytotoxicity against human SN12C cells assessed as growth inhibition after 48 hrs by sulforhodamine B assay
[18] = system: KM12; experiment: Cytotoxicity against human KM12 cells assessed as growth inhibition after 48 hrs by sulforhodamine B assay; details: KM12, 48 h
[19] = system: Malme-3M; experiment: Cytotoxicity against human MALME-3M cells assessed as cell growth at 0.01 uM after 48 hrs by sulforhodamine B assay relative to control; details: read-out: Activity
[20] = system: Hs-578T; experiment: Cytotoxicity against human Hs 578T cells assessed as cell growth at 0.01 uM after 48 hrs by sulforhodamine B assay relative to control; details: read-out: Activity
[21] = system: NCI-H23; experiment: Cytotoxicity against human NCI-H23 cells assessed as cell growth at 100 uM after 48 hrs by sulforhodamine B assay relative to control; details: NCI-H23, 48 h, read-out: Activity
[22] = system: NCI-H226; experiment: Cytotoxicity against human NCI-H226 cells assessed as cell growth at 100 uM after 48 hrs by sulforhodamine B assay relative to control; details: NCI-H226, 48 h, read-out: Activity
[23] = system: ACHN; experiment: Cytotoxicity against human ACHN cells assessed as cell growth at 0.1 uM after 48 hrs by sulforhodamine B assay relative to control; details: read-out: Activity
[24] = system: NCI-H522; experiment: Cytotoxicity against human NCI-H522 cells assessed as cell growth at 0.01 uM after 48 hrs by sulforhodamine B assay relative to control; details: NCI-H522, 48 h, read-out: Activity
[25] = system: RXF 393; experiment: Cytotoxicity against human RXF393 cells assessed as cell growth at 0.01 uM after 48 hrs by sulforhodamine B assay relative to control; details: RXF 393, 48 h, read-out: Activity
[26] = system: KM12; experiment: Cytotoxicity against human KM12 cells assessed as cell growth at 1 uM after 48 hrs by sulforhodamine B assay relative to control; details: KM12, 48 h, read-out: Activity
[27] = system: NCI-H322M; experiment: Cytotoxicity against human NCI-H322M cells assessed as cell growth at 10 uM after 48 hrs by sulforhodamine B assay relative to control; details: read-out: Activity
[28] = system: UACC-62; experiment: Cytotoxicity against human UACC62 cells assessed as cell growth at 10 uM after 48 hrs by sulforhodamine B assay relative to control; details: UACC-62, 48 h, read-out: Activity
[29] = system: MDA-MB-231; experiment: Cytotoxicity against human MDA-MB-231 cells assessed as cell growth at 10 uM after 48 hrs by sulforhodamine B assay relative to control; details: MDA-MB-231, 48 h, read-out: Activity
[30] = system: K562; experiment: Cytotoxicity against human K562 cells assessed as cell growth at 0.1 uM after 48 hrs by sulforhodamine B assay relative to control; details: K562, 48 h, read-out: Activity
[31] = system: HCT-15; experiment: Cytotoxicity against human HCT15 cells assessed as growth inhibition after 48 hrs by sulforhodamine B assay; details: HCT-15, 48 h
[32] = system: UACC-62; experiment: Cytotoxicity against human UACC62 cells assessed as cell growth at 100 uM after 48 hrs by sulforhodamine B assay relative to control; details: UACC-62, 48 h, read-out: Activity
[33] = system: DU-145; experiment: Cytotoxicity against human DU145 cells assessed as cell growth at 10 uM after 48 hrs by sulforhodamine B assay relative to control; details: DU-145, 48 h, read-out: Activity
[34] = system: UACC-257; experiment: Cytotoxicity against human UACC257 cells assessed as cell growth at 100 uM after 48 hrs by sulforhodamine B assay relative to control; details: UACC-257, 48 h, read-out: Activity
[35] = system: NCI/ADR-RES; experiment: Cytotoxicity against human NCI/ADR-RES cells assessed as cell growth at 100 uM after 48 hrs by sulforhodamine B assay relative to control; details: read-out: Activity
[36] = system: K562; experiment: Cytotoxicity against human K562 cells assessed as cell growth at 100 uM after 48 hrs by sulforhodamine B assay relative to control; details: K562, 48 h, read-out: Activity

COc1ccc(C(=O)/C=C/c2cc(-c3ccc(OC)c(OC)c3)n[nH]2)cc1OC
growth at 10 µM [1]: -62%
GI50 [2]: 2160 nM
TGI [2]: 5.02 µM
growth at 10 µM [3]: 4%
growth at 0.1 µM [4]: 88%
growth at 100 µM [5]: -75%
GI50 [6]: 1740 nM
TGI [6]: 3.19 µM
growth at 100 µM [7]: -55%
growth at 100 µM [8]: -15%
growth at 100 µM [9]: 2%
growth at 0.1 µM [10]: 95%
growth at 100 µM [11]: 18%
growth at 0.01 µM [12]: 88%
growth at 0.1 µM [13]: 95%
GI50 [14]: 1670 nM
TGI [14]: 4.16 µM
CC50 [14]: > 100 µM
GI50 [15]: 2760 nM
TGI [15]: > 100 µM
growth at 10 µM [16]: 8%
GI50 [17]: 1920 nM
TGI [17]: 4.82 µM
GI50 [18]: 625 nM
TGI [18]: 2.08 µM
growth at 0.01 µM [19]: 99%
growth at 0.01 µM [20]: 93%
growth at 100 µM [21]: -21%
growth at 100 µM [22]: -5%
growth at 0.1 µM [23]: 96%
growth at 0.01 µM [24]: 91%
growth at 0.01 µM [25]: 94%
growth at 1 µM [26]: 37%
growth at 10 µM [27]: -9%
growth at 10 µM [28]: -57%
growth at 10 µM [29]: -18%
growth at 0.1 µM [30]: 97%
GI50 [31]: 1090 nM
TGI [31]: 5.39 µM
growth at 100 µM [32]: -49%
growth at 10 µM [33]: -34%
growth at 100 µM [34]: -70%
growth at 100 µM [35]: -15%

COc1ccc(C(=O)/C=C/c2cc(-c3ccc4c(c3)OCO4)n[nH]2)cc1OC
growth at 10 µM [1]: -43%
LC50 [2]: 56.4 µM
TGI [2]: 22.1 µM
growth at 100 µM [36]: -12%
growth at 10 µM [3]: 3%
growth at 0.1 µM [4]: 95%
growth at 100 µM [5]: -89%
LC50 [6]: 48.1 µM
TGI [6]: 17.3 µM
growth at 100 µM [7]: -93%
growth at 100 µM [8]: -65%
growth at 100 µM [9]: -50%
growth at 0.1 µM [10]: 95%
growth at 100 µM [11]: -5%
growth at 0.01 µM [12]: 96%
growth at 0.1 µM [13]: 94%
TGI [14]: 15.2 µM
CC50 [14]: 40.8 µM
LC50 [15]: > 100 µM
TGI [15]: 11.8 µM
growth at 10 µM [16]: -27%
LC50 [17]: 53.7 µM
TGI [17]: 13.6 µM
LC50 [18]: 34.9 µM
TGI [18]: 9.48 µM
growth at 0.01 µM [19]: 93%
growth at 0.01 µM [20]: 96%
growth at 100 µM [21]: -67%
growth at 100 µM [22]: -20%
growth at 0.1 µM [23]: 100%
growth at 0.01 µM [24]: 85%
growth at 0.01 µM [25]: 98%
growth at 1 µM [26]: 94%
growth at 10 µM [27]: -15%
growth at 10 µM [28]: 19%
growth at 10 µM [29]: -14%
growth at 0.1 µM [30]: 96%
LC50 [31]: > 100 µM
TGI [31]: > 100 µM
growth at 100 µM [32]: -94%
growth at 10 µM [33]: -51%
growth at 100 µM [34]: -81%

COc1cc(-c2cc(/C=C/C(=O)c3ccc4c(c3)OCO4)[nH]n2)cc(OC)c1OC
growth at 10 µM [1]: 9%
LC50 [2]: > 100 µM
TGI [2]: 40.3 µM
growth at 100 µM [36]: -10%
growth at 10 µM [3]: -21%
growth at 0.1 µM [4]: 101%
growth at 100 µM [5]: -97%
LC50 [6]: 6.43 µM
TGI [6]: 3.54 µM
growth at 100 µM [7]: -38%
growth at 100 µM [8]: -33%
growth at 100 µM [9]: 4%
growth at 0.1 µM [10]: 99%
growth at 100 µM [11]: -2%
growth at 0.01 µM [12]: 97%
growth at 0.1 µM [13]: 90%
TGI [14]: > 100 µM
CC50 [14]: > 100 µM
LC50 [15]: > 100 µM
TGI [15]: 6.36 µM
growth at 10 µM [16]: 2%
LC50 [17]: > 100 µM
TGI [17]: > 100 µM
growth at 0.01 µM [19]: 93%
growth at 0.01 µM [20]: 93%
growth at 100 µM [21]: 20%
growth at 0.1 µM [23]: 109%
growth at 0.01 µM [24]: 87%
growth at 0.01 µM [25]: 95%
growth at 1 µM [26]: 89%
growth at 10 µM [27]: 3%
growth at 10 µM [28]: 26%
growth at 10 µM [29]: 20%
growth at 0.1 µM [30]: 102%
LC50 [31]: > 100 µM
TGI [31]: 7.19 µM
growth at 100 µM [32]: 22%
growth at 10 µM [33]: -2%
growth at 100 µM [34]: -1%
growth at 100 µM [35]: 1%
